# Legend:
# Assay type in all cases: physicochemical
# [1] = Photothermal heating under 808 nm NIR laser, 1.0 W/cm^2 for 10 min; conditions: 1.0 W/cm^2, 10 min, 1 mL aqueous, 12 μg/mL ICG or 11.6 μg/mL Fe
# Procedure: To synthesize an effectiveness photothermal agents, we explore the synergistic effect of ICG and OA-Fe3O4. Various photothermal agents were exposed to 808 nm NIR laser irradiation with a power density of 1.0 W/cm^2 for 10 min. Aqueous suspensions of ICG/OA-Fe3O4@NPs, mixture of free ICG and OA-Fe3O4 (1 mL solution with 12 μg/mL ICG or 11.6 μg/mL Fe) reach the maximum temperatures of 45.9° C., 46.6° C.
# [2] = Photothermal stability, laser ON 3 min / OFF 7 min cycles; conditions: NIR laser 3 min ON, 7 min OFF
# Procedure: DdH2O, blank nanoparticles, 0.012 mg/mL free ICG, nanoparticles containing ICG and Fe3O4 (concentration of ICG is 0.012 mg/mL) and nanoparticles containing ICG and oleic acid modified Fe3O4 were continuously irradiated at 1.5 W/cm2 by 808 nm laser emitter. […] Then, PLGA nanoparticles coated with oleic acid modified Fe3O4 and free oleic acid modified Fe3O4 were irradiated continuously.
# ICG@NPs, free ICG, ICG/OA-Fe3O4@NPs, free ICG/OA-Fe3O4 were irradiated with the NIR laser for 3 min (Laser ON), followed by natural cooling for 7 min (Laser OFF).
# Furthermore, to investigate the photothermal conversion stability of ICG/OA-Fe3O4@PLGA for practical applications, solutions of ICG/OA-Fe3O4@PLGA, ICG/Fe3O4@PLGA, ICG@PLGA, Blank-NPs and free ICG were irradiated with the NIR laser for 3 min (Laser ON), followed by natural cooling for 7 min (Laser OFF).
# [3] = Photothermal conversion under continuous 808 nm laser irradiation, 1.5 W/cm^2; conditions: 808 nm NIR laser
# Procedure: DdH2O, blank nanoparticles, 0.012 mg/mL free ICG, nanoparticles containing ICG and Fe3O4 (concentration of ICG is 0.012 mg/mL) and nanoparticles containing ICG and oleic acid modified Fe3O4 were continuously irradiated at 1.5 W/cm2 by 808 nm laser emitter. […] Then, PLGA nanoparticles coated with oleic acid modified Fe3O4 and free oleic acid modified Fe3O4 were irradiated continuously. […] But the heat production capacity is low. Then, we used intermittent irradiation method, every 3 minutes to raise the temperature to the highest point, and stopped the irradiation for 7 minutes to bring the temperature back to room temperature until the temperature no longer increased.
# To evaluate its photothermal conversion performance, ICG/OA-Fe3O4@PLGA solutions were irradiated with an 808 nm NIR laser (1.5 W/cm^2, FIGS. 3A-3C). […] No significant temperature changes were found in Blank-NP solution and DI water. Only negligible temperature increase of Blank-NP solution and DI water were found.
structure (smiles),measurement,setting,value
"CC1(C)C(/C=C/C=C/C=C/C=C2\N(CCCCS(=O)(=O)O)c3ccc4ccccc4c3C2(C)C)=[N+](CCCCS(=O)(=O)[O-])c2ccc3ccccc3c21 [free ICG, Indocyanine green]",maximum temperature,[1],41.8 °C
same,"maxim temperature, laser ON/OFF cycle 1",[2]; 1st of six cycles,40.9 °C
same,"maxim temperature, laser ON/OFF cycle 2",[2]; 2nd of six cycles,37.1 °C
same,"maxim temperature, laser ON/OFF cycle 3",[2]; 3rd of six cycles,33.8 °C
same,"maxim temperature, laser ON/OFF cycle 4",[2]; 4th of six cycles,32.8 °C
same,"maxim temperature, laser ON/OFF cycle 5",[2]; 5th of six cycles,30.7 °C
same,"maxim temperature, laser ON/OFF cycle 6",[2]; 6th of six cycles,30.1 °C
same,time high temperature was maintained,[3],only a few minutes
same,temperature reached by the solution,[3]; 500 μg mL-1,47.3 °C
